From patent US20220089592A1, “IMIDAZO[1,2-A]PYRIDINYL DERIVATIVES AS IRAK4 INHIBITORS” (priority 2019, published 2022) come the findings set out here.

For test [1], the target named is T1, IRAK4 (Homo sapiens, UniProt Q9NWZ3).
T1 sequence (Q9NWZ3 1-460): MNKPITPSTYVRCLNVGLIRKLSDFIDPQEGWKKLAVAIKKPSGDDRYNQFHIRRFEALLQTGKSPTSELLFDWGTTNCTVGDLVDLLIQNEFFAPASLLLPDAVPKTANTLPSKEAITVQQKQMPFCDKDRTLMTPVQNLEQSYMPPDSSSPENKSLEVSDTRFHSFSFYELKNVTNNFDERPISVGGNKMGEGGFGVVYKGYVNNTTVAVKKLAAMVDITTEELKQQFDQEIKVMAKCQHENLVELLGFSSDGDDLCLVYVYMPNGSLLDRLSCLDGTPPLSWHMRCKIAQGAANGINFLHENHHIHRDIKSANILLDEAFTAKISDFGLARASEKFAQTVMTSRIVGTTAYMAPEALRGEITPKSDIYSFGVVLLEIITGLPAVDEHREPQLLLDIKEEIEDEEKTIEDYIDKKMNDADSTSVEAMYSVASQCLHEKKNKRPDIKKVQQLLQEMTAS
The test is described as follows: 2-hour 10 μM ATP Biochemical Assay (MesoScale Detection format; IRAK4 phosphorylation of biotin labeled IRAK1 activation loop peptide). As to conditions: IRAK4 MSD BIOCHEMICAL (10 μM ATP) IC50 (μM), 1 nM IRAK4, 2 hours. In short, it runs like this: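 Kinase reaction run 2 h at 10 μM ATP with biotinylated IRAK1 activation-loop peptide, quenched with EDTA. Phospho-peptide captured on streptavidin MSD plates and detected with anti-phosphothreonine rabbit antibody plus Sulfo-Tag anti-rabbit electrochemiluminescence.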

The target of test [2] is T1, IRAK4. In words: 2-hour 1 mM ATP IRAK4 Biochemical assay (as above, but with 100 pM IRAK4 and 1 mM ATP). As to conditions: IRAK4 MSD BIOCHEMICAL (1 mM ATP) IC50 (μM), 100 pM IRAK4, 2 hours. In short, it runs like this:
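Run with 100 pM IRAK4 and 1 mM ATP for 2 hours, quenched with EDTA pH 8. Phosphorylated biotinylated peptide captured on streptavidin MSD plates and detected with anti-phosphothreonine antibody plus Sulfo-Tag secondary by electrochemiluminescence.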

Broadly, the IC50 is the concentration needed to halve the response being measured. High values mean weaker potency, low ones greater potency. As for `CCOc1cc2nc(C3CCCOC3)cn2cc1NC(=O)c1cccc(C(F)(F)F)n1` (stereo not shown) [Example 112, N-(7-ethoxy-2-(tetrahydro-2H-pyran-3-yl)imidazo[1,2-a]pyridin-6-yl)-6-(trifluoromethyl)picolinamide], the IC50 against IRAK4 [1] and against IRAK4 [2] was 0.001 µM throughout.

Regarding `CCOc1cc2nc(C3CCOCC3)cn2cc1NC(=O)c1ccn(C(F)F)n1` [Example 230, 1-(difluoromethyl)-N-(7-ethoxy-2-(tetrahydro-2H-pyran-4-yl)imidazo[1,2-a]pyridin-6-yl)-1H-pyrazole-3-carboxamide], the concentration for half-maximal inhibition (IC50) at IRAK4 [1] was 0.001 µM; against IRAK4 [2], 0.003 µM.

In the case of `CCOc1cc2nc(C3CCOCC3)cn2cc1NC(=O)c1ccn(C)n1` [Example 204, N-(7-ethoxy-2-(tetrahydro-2H-pyran-4-yl)imidazo[1,2-a]pyridin-6-yl)-1-methyl-1H-pyrazole-3-carboxamide], the IC50 turned out to be 0.004 µM at IRAK4 [1] and 0.021 µM against IRAK4 [2].

`CCOc1cc2nc(C3CN(C(C)=O)C3)cn2cc1NC(=O)c1cccc(C(F)(F)F)n1` [Example 68, N-(2-(1-acetylazetidin-3-yl)-7-ethoxyimidazo[1,2-a]pyridin-6-yl)-6-(trifluoromethyl)picolinamide]: the IC50 on IRAK4 [1] and against IRAK4 [2] was 0.001 µM throughout.

Take `CCOc1cc2nc(C[C@@H]3CCOC3)cn2cc1NC(=O)c1cccc(C(F)F)n1` (single isomer, unassigned) [Example 16]: the half-inhibitory concentration (IC50) at IRAK4 [1] and against IRAK4 [2] was 0.001 µM throughout.

Turning to `CCOc1cc2nc(C(C)(C)C#N)cn2cc1NC(=O)c1coc(C(C)C)n1` [Example 358, N-(2-(2-cyanopropan-2-yl)-7-ethoxyimidazo[1,2-a]pyridin-6-yl)-2-isopropyloxazole-4-carboxamide], the IC50 against IRAK4 [1] was 0.006 µM; at IRAK4 [2] it was 0.014 µM.

Turning to `CCOc1cc2nc([C@H](F)[C@@H]3CCOC3)cn2cc1NC(=O)c1cccc(C(F)(F)F)n1` (single isomer, unassigned) [Example 143], the values for the IC50 on IRAK4 [1] and on IRAK4 [2] were 0.001 µM and 0.002 µM, respectively.

Consider `CCOc1cc2nc([C@H]3C[C@@H]3F)cn2cc1NC(=O)c1cccc(C(F)F)n1` (stereo in doubt) [Example 253, 6-(difluoromethyl)-N-(7-ethoxy-2-((1R*,2S*)-2-fluorocyclopropyl)imidazo[1,2-a]pyridin-6-yl)picolinamide], for which the IC50 against IRAK4 [1] was found to be 0.002 µM; at IRAK4 [2], 0.005 µM.

Regarding `CCOc1nc2nc(CC3CCOC3)cn2cc1NC(=O)c1cccc(C(F)(F)F)n1` (single isomer, unassigned) [Example 95], the figures for the IC50 at IRAK4 [1] and against IRAK4 [2] were 0.001 µM and 0.003 µM, respectively.

As to `CCOc1cc2nc(C34CC(OC)(C3)C4)cn2cc1NC(=O)c1cccc(C(F)F)n1` [Example 153, 6-(difluoromethyl)-N-(7-ethoxy-2-(3-methoxybicyclo[1.1.1]pentan-1-yl)imidazo[1,2-a]pyridin-6-yl)picolinamide], the IC50 on IRAK4 [1] and at IRAK4 [2] was 0.001 µM throughout.

In the case of `CCOc1cc2nc(C3CCOCC3)cn2cc1NC(=O)c1cccc(OC2CCC2)n1` [Example 236, 6-cyclobutoxy-N-(7-ethoxy-2-(tetrahydro-2H-pyran-4-yl)imidazo[1,2-a]pyridin-6-yl)picolinamide], the results for the IC50 at IRAK4 [1] and against IRAK4 [2] were 0.006 µM and 0.019 µM, respectively.

As to `CCOc1cc2nc(C3CCOCC3)cn2cc1NC(=O)c1ccccn1` [Example 216, N-(7-ethoxy-2-(tetrahydro-2H-pyran-4-yl)imidazo[1,2-a]pyridin-6-yl)picolinamide], the IC50 stood at 0.007 µM at IRAK4 [1] and 0.023 µM against IRAK4 [2].

Regarding `CCOc1cc2nc(C3CCOCC3)cn2cc1NC(=O)c1ccc(F)cn1` [Example 219, N-(7-ethoxy-2-(tetrahydro-2H-pyran-4-yl)imidazo[1,2-a]pyridin-6-yl)-5-fluoropicolinamide], the IC50 at IRAK4 [1] amounted to 0.007 µM; on IRAK4 [2] it was 0.055 µM.

As for `CCOc1cc2nc(CC3CCOCC3)cn2cc1NC(=O)c1cccc(C(F)F)n1` [Example 151, 6-(difluoromethyl)-N-(7-ethoxy-2-((tetrahydro-2H-pyran-4-yl)methyl)imidazo[1,2-a]pyridin-6-yl)picolinamide], the half-maximal inhibitory concentration (IC50) against IRAK4 [1] stood at 0.001 µM; against IRAK4 [2], 0.002 µM.

Regarding `O=C(Nc1cn2cc(C3CC3)nc2cc1OCc1ccccc1)c1cccc(C(F)F)n1` [Example 9, N-(7-(benzyloxy)-2-cyclopropylimidazo[1,2-a]pyridin-6-yl)-6-(difluoromethyl)picolinamide], the concentration for half-maximal inhibition (IC50) against IRAK4 [1] was 0.005 µM; on IRAK4 [2] it was 0.01 µM.

Regarding `CCOc1cc2nc(C(F)(F)CCOC)cn2cc1NC(=O)c1cccc(C(F)F)n1` [Example 149, N-(2-(1,1-difluoro-3-methoxypropyl)-7-ethoxyimidazo[1,2-a]pyridin-6-yl)-6-(difluoromethyl)picolinamide], the IC50 was determined as 0.002 µM at IRAK4 [1] and 0.003 µM on IRAK4 [2].

On to `CCOc1cc2nc([C@@H](O)C3CC3)cn2cc1NC(=O)c1cccc(C(F)(F)F)n1` (single isomer, unassigned) [Example 169], for which the IC50 against IRAK4 [1] stood at 0.003 µM; against IRAK4 [2], 0.009 µM.

With `CC1CCC(Oc2cc3nc(C4CCOCC4)cn3cc2NC(=O)c2cccc(C(F)F)n2)C1` (stereo not shown) [Example 178, 6-(difluoromethyl)-N-(7-((3-methylcyclopentyl)oxy)-2-(tetrahydro-2H-pyran-4-yl)imidazo[1,2-a]pyridin-6-yl)picolinamide], the IC50 at IRAK4 [1] and against IRAK4 [2] was 0.001 µM in each case.

As to `CCOc1cc2nc(C3CCOCC3)cn2cc1NC(=O)c1cccc(N(C)C)n1` [Example 237, 6-(dimethylamino)-N-(7-ethoxy-2-(tetrahydro-2H-pyran-4-yl)imidazo[1,2-a]pyridin-6-yl)picolinamide], the half-inhibitory concentration (IC50) against IRAK4 [1] came out at 0.001 µM; against IRAK4 [2], 0.005 µM.

In the case of `CCOc1cc2nc(CC)cn2cc1NC(=O)c1ccn(C(F)F)n1` [Example 44, 1-(difluoromethyl)-N-(7-ethoxy-2-ethylimidazo[1,2-a]pyridin-6-yl)-1H-pyrazole-3-carboxamide], the values for the IC50 on IRAK4 [1] and at IRAK4 [2] were 0.012 µM and 0.027 µM, respectively.

Turning to `CCOc1cc2nc(Cn3ccccc3=O)cn2cc1NC(=O)c1cccc(C(F)F)n1` [Example 87, 6-(difluoromethyl)-N-(7-ethoxy-2-((2-oxopyridin-1(2H)-yl)methyl)imidazo[1,2-a]pyridin-6-yl)picolinamide], the IC50 at IRAK4 [1] is 0.004 µM; against IRAK4 [2], 0.017 µM.

`CN1CCC(Oc2cc3nc(C4CCOCC4)cn3cc2NC(=O)c2cccc(C(F)F)n2)C1=O` (stereo not shown) [Example 181, 6-(difluoromethyl)-N-(7-((1-methyl-2-oxopyrrolidin-3-yl)oxy)-2-(tetrahydro-2H-pyran-4-yl)imidazo[1,2-a]pyridin-6-yl)picolinamide]: the IC50 on IRAK4 [1] came to 0.001 µM; on IRAK4 [2] it was 0.002 µM.

Regarding `CCOc1cc2nc(C(C)C3CCOC3)cn2cc1NC(=O)c1cccc(C(F)(F)F)n1` (single isomer, unassigned) [Example 139], the IC50 on IRAK4 [1] and against IRAK4 [2] was 0.001 µM each time.

Turning to `CCOc1cc2nc(C3CCOCC3)cn2cc1NC(=O)c1scc2c1OCCO2` [Example 221, N-(7-ethoxy-2-(tetrahydro-2H-pyran-4-yl)imidazo[1,2-a]pyridin-6-yl)-2,3-dihydrothieno[3,4-b][1,4]dioxine-5-carboxamide], the figures for the IC50 on IRAK4 [1] and against IRAK4 [2] were 0.001 µM and 0.011 µM, respectively.

For the compound `CCOc1cc2nc(C3CN(C(C)=O)C3)cn2cc1NC(=O)c1cccc(C(F)F)n1` [Example 81, N-(2-(1-acetylazetidin-3-yl)-7-ethoxyimidazo[1,2-a]pyridin-6-yl)-6-(difluoromethyl)picolinamide], the IC50 against IRAK4 [1] and at IRAK4 [2] was 0.001 µM in each case.

Regarding `CCOc1cc2nc(C34CC(CO)(C3)C4)cn2cc1NC(=O)c1cccc(C(F)F)n1` [Example 130, 6-(difluoromethyl)-N-(7-ethoxy-2-(3-(hydroxymethyl)bicyclo[1.1.1]pentan-1-yl)imidazo[1,2-a]pyridin-6-yl)picolinamide], the 50% inhibitory concentration (IC50) against IRAK4 [1] and against IRAK4 [2] was 0.001 µM in each case.

With `CC1(COc2cc3nc(CC4CCOC4)cn3cc2NC(=O)c2cccc(C(F)(F)F)n2)COC1` (stereo not shown) [Example 163, N-(7-((3-methyloxetan-3-yl)methoxy)-2-((tetrahydrofuran-3-yl)methyl)imidazo[1,2-a]pyridin-6-yl)-6-(trifluoromethyl)picolinamide], the IC50 on IRAK4 [1] amounted to 0.002 µM; against IRAK4 [2] it was 0.007 µM.

`CCOc1cc2nc(CCC(C)(C)O)cn2cc1NC(=O)c1cccc(C(F)F)n1` [Example 27, 6-(difluoromethyl)-N-(7-ethoxy-2-(3-hydroxy-3-methylbutyl)imidazo[1,2-a]pyridin-6-yl)picolinamide]: the IC50 against IRAK4 [1] and at IRAK4 [2] was 0.001 µM throughout.

Regarding `CCOc1cc2nc(C3CCOCC3)cn2cc1NC(=O)c1cccc(C#N)n1` [Example 365, 6-cyano-N-(7-ethoxy-2-(tetrahydro-2H-pyran-4-yl)imidazo[1,2-a]pyridin-6-yl)picolinamide], the IC50 on IRAK4 [1] was determined as 0.002 µM; against IRAK4 [2], 0.006 µM.
